Measured values taken from patent publication US10167262B2, “Herbicidal substituted 3-arylpyrazoles” (FMC CORPORATION, priority 2014, dated 2019).

Legend:
Test in all cases: Test E pre-/postemergence greenhouse test, plant response rating 0-100
Type in all cases: in vivo
[1] = test system: Brazilian crabgrass (Digitaria horizontalis); settings: Postemergence, scale 0 to 100
Description: (§1) Seeds of plant species selected from corn (Zea mays), soybean (Glycine max), velvetleaf (Abutilon theophrasti), lambsquarters (Chenopodium album), wild poinsettia (Euphorbia heterophylla), palmer pigweed (Amaranthus palmeri), waterhemp (common waterhemp, Amaranthus rudis), surinam grass (Brachiaria decumbens), large (Lg) crabgrass (Digitaria sanguinalis), Brazilian crabgrass (Digitaria horizontalis), fall panicum (Panicum dichotomiflorum), giant foxtail (Setaria faberii), green foxtail (Setaria viridis), goosegrass (Eleusine indica), johnsongrass (Sorghum halepense), ragweed (common ragweed, Ambrosia elatior), barnyardgrass (Echinochloa crus-galli), sandbur (southern sandbur, Cenchrus echinatus), arrowleaf sida (Sida rhombifolia), Italian ryegrass (Lolium multiflorum), dayflower (Virginia (VA) dayflower, Commelina virginica), field bindweed (Convolvulus arvensis), morningglory (Ipomoea coccinea), nightshade (eastern black nightshade, Solanum ptycanthum), kochia (Kochia scoparia), yellow nutsedge (Cyperus esculentus), smartweed (ladysthumb smartweed, Polygonum persicaria), cocklebur (common cocklebur, Xanthium strumarium), and hairy beggarticks (Bidens pilosa), were planted into a silt loam soil and treated preemergence with test chemicals formulated in a non-phytotoxic solvent mixture which included a surfactant.
(§2) At the same time, plants from these crop and weed species and also waterhemp_RES1, (ALS & Triazine resistant common waterhemp, Amaranthus rudis), and waterhemp_RES2, (ALS & HPPD resistant common waterhemp, Amaranthus rudis) were planted in pots containing Redi-Earth® planting medium (Scotts Company, 14111 Scottslawn Road, Marysville, Ohio 43041) comprising spaghnum peat moss, vermiculite, wetting agent and starter nutrients were treated with postemergence applications of test chemicals formulated in the same manner. Plants ranged in height from 2 to 18 cm for postemergence treatments (1- to 4-leaf stage).
(§3) Treated plants and controls were maintained in a greenhouse for 14 to 21 days, after which time all species were compared to controls and visually evaluated. Plant response ratings, summarized in Table E, are based on a scale of 0 to 100 where 0 is no effect and 100 is complete control. A dash (-) response means no test result.

[2] = test system: palmer pigweed (Amaranthus palmeri); settings: Postemergence, scale 0 to 100
Description: as §1, §2, §3

[3] = test system: field bindweed (Convolvulus arvensis); settings: Postemergence, scale 0 to 100
Description: as §1, §2, §3

[4] = test system: dayflower (Virginia (VA) dayflower, Commelina virginica); settings: Postemergence, scale 0 to 100
Description: as §1, §2, §3

[5] = test system: waterhemp (common waterhemp, Amaranthus rudis); settings: Postemergence, scale 0 to 100
Description: as §1, §2, §3

[6] = test system: arrowleaf sida (Sida rhombifolia); settings: Postemergence
Description: as §1, §2, §3

[7] = test system: hairy beggarticks (Bidens pilosa); settings: Postemergence, scale 0 to 100
Description: as §1, §2, §3

[8] = test system: Italian ryegrass (Lolium multiflorum); settings: Postemergence, scale 0 to 100
Description: as §1, §2, §3

[9] = test system: fall panicum (Panicum dichotomiflorum); settings: Panicum dichotomiflorum, post-emergence, Postemergence, scale 0 to 100
Description: as §1, §2, §3

[10] = test system: wild poinsettia (Euphorbia heterophylla); settings: Postemergence, scale 0 to 100
Description: as §1, §2, §3

corn (Zea mays) = settings: Postemergence, scale 0 to 100
Description: as §1, §2, §3

`Clc1cc(Cl)cc(-c2n[nH]cc2C(=NN2CCCC2)c2ccccc2)c1` [Compound 30, N-[[3-(3,5-dichlorophenyl)-1H-pyrazol-4-yl]phenylmethylene]-1-pyrrolidinamine] showed a pest or weed control at 16 g/ha ([1]; Digitaria horizontalis, post-emergence, 16 g ai/ha, read-out: Plant response rating, Crabgrass, Brazil) of 0%, a pest or weed control at 31 g/ha ([1]; Digitaria horizontalis, post-emergence, 31 g ai/ha, read-out: Plant response rating, Crabgrass, Brazil) of 0% and a pest or weed control at 62 g/ha ([1]; Digitaria horizontalis, post-emergence, 62 g ai/ha, read-out: Plant response rating, Crabgrass, Brazil) of 0%. For the same compound, the pest or weed control at 125 g/ha ([1]; Digitaria horizontalis, post-emergence, 125 g ai/ha, read-out: Plant response rating, Crabgrass, Brazil) was 0%, the pest or weed control at 250 g/ha ([1]; Digitaria horizontalis, post-emergence, 250 g ai/ha, read-out: Plant response rating, Crabgrass, Brazil) was 0% and the pest or weed control at 31 g/ha ([2]; Amaranthus palmeri, post-emergence, 31 g ai/ha) was 40%. It also gave a pest or weed control at 62 g/ha ([2]; Amaranthus palmeri, post-emergence, 62 g ai/ha) of 100%, a pest or weed control at 125 g/ha ([2]; Amaranthus palmeri, post-emergence, 125 g ai/ha) of 100% and a pest or weed control at 250 g/ha ([2]; Amaranthus palmeri, post-emergence, 250 g ai/ha) of 100%. It also gave a pest or weed control at 16 g/ha ([3]; Convolvulus arvensis, post-emergence, 16 g ai/ha) of 0%, a pest or weed control at 31 g/ha ([3]; Convolvulus arvensis, post-emergence, 31 g ai/ha) of 0% and a pest or weed control at 62 g/ha ([3]; Convolvulus arvensis, post-emergence, 62 g ai/ha) of 0%. The pest or weed control at 125 g/ha ([3]; Convolvulus arvensis, post-emergence, 125 g ai/ha) was 0%, the pest or weed control at 250 g/ha ([3]; Convolvulus arvensis, post-emergence, 250 g ai/ha) was 0% and the pest or weed control at 16 g/ha ([4]; Commelina virginica, post-emergence, 16 g ai/ha) was 0%. It also gave a pest or weed control at 31 g/ha ([4]; Commelina virginica, post-emergence, 31 g ai/ha) of 0%, a pest or weed control at 62 g/ha ([4]; Commelina virginica, post-emergence, 62 g ai/ha) of 0% and a pest or weed control at 125 g/ha ([4]; Commelina virginica, post-emergence, 125 g ai/ha) of 0%. For the same compound, the pest or weed control at 250 g/ha ([4]; Commelina virginica, post-emergence, 250 g ai/ha) was 0%, the pest or weed control at 31 g/ha ([5]; Amaranthus tuberculatus, post-emergence, 31 g ai/ha) was 60% and the pest or weed control at 62 g/ha ([5]; Amaranthus tuberculatus, post-emergence, 62 g ai/ha) was 70%. It also gave a pest or weed control at 125 g/ha ([5]; Amaranthus tuberculatus, post-emergence, 125 g ai/ha) of 70%, a pest or weed control at 250 g/ha ([5]; Amaranthus tuberculatus, post-emergence, 250 g ai/ha) of 75% and a pest or weed control at 16 g/ha ([6]; Sida rhombifolia, post-emergence, 16 g ai/ha, scale 0 to 100) of 50%. It also gave a pest or weed control at 31 g/ha ([6]; Sida rhombifolia, post-emergence, 31 g ai/ha, scale 0 to 100) of 50%, a pest or weed control at 62 g/ha ([6]; Sida rhombifolia, post-emergence, 62 g ai/ha, scale 0 to 100) of 70% and a pest or weed control at 125 g/ha ([6]; Sida rhombifolia, post-emergence, 125 g ai/ha, scale 0 to 100) of 80%. The pest or weed control at 250 g/ha ([6]; Sida rhombifolia, post-emergence, 250 g ai/ha, scale 0 to 100) was 80%, the pest or weed control at 16 g/ha ([7]; Bidens pilosa, post-emergence, 16 g ai/ha) was 80% and the pest or weed control at 125 g/ha ([7]; Bidens pilosa, post-emergence, 125 g ai/ha) was 85%. The pest or weed control at 250 g/ha ([7]; Bidens pilosa, post-emergence, 250 g ai/ha) was 100%, the pest or weed control at 31 g/ha ([8]; Lolium multiflorum, post-emergence, 31 g ai/ha) was 0% and the pest or weed control at 62 g/ha ([8]; Lolium multiflorum, post-emergence, 62 g ai/ha) was 0%. The pest or weed control at 125 g/ha ([8]; Lolium multiflorum, post-emergence, 125 g ai/ha) was 0%, the pest or weed control at 250 g/ha ([8]; Lolium multiflorum, post-emergence, 250 g ai/ha) was 5% and the pest or weed control at 31 g/ha ([9]; 31 g ai/ha) was 0%. The pest or weed control at 62 g/ha ([9]; 62 g ai/ha) was 0%, the pest or weed control at 125 g/ha ([9]; 125 g ai/ha) was 0% and the pest or weed control at 250 g/ha ([9]; 250 g ai/ha) was 0%. It also gave a pest or weed control at 31 g/ha ([10]; Euphorbia heterophylla, post-emergence, 31 g ai/ha, read-out: Plant response rating, Poinsettia, Wild) of 0%, a pest or weed control at 62 g/ha ([10]; Euphorbia heterophylla, post-emergence, 62 g ai/ha, read-out: Plant response rating, Poinsettia, Wild) of 0% and a pest or weed control at 125 g/ha ([10]; Euphorbia heterophylla, post-emergence, 125 g ai/ha, read-out: Plant response rating, Poinsettia, Wild) of 0%. The pest or weed control at 250 g/ha ([10]; Euphorbia heterophylla, post-emergence, 250 g ai/ha, read-out: Plant response rating, Poinsettia, Wild) was 0%, the Corn plant response rating (crop injury, 0 = no effect, 100 = complete kill) at 16 g/ha (corn (Zea mays); Zea mays, post-emergence, 16 g ai/ha) was 0% and the Corn plant response rating (crop injury, 0 = no effect, 100 = complete kill) at 31 g/ha (corn (Zea mays); Zea mays, post-emergence, 31 g ai/ha) was 0%. It also gave a Corn plant response rating (crop injury, 0 = no effect, 100 = complete kill) at 62 g/ha (corn (Zea mays); Zea mays, post-emergence, 62 g ai/ha) of 0%, a Corn plant response rating (crop injury, 0 = no effect, 100 = complete kill) at 125 g/ha (corn (Zea mays); Zea mays, post-emergence, 125 g ai/ha) of 0% and a Corn plant response rating (crop injury, 0 = no effect, 100 = complete kill) at 250 g/ha (corn (Zea mays); Zea mays, post-emergence, 250 g ai/ha) of 0%.

In the case of `Fc1ccc(NN=C(c2ccccc2)c2c[nH]nc2-c2cc(Cl)cc(Cl)c2)cc1` [Compound 35], the “Plant response rating, Crabgrass, Brazil” value ([1]; 31 g ai/ha) is reported as 0, the “Plant response rating, Crabgrass, Brazil” value ([1]; 62 g ai/ha) is reported as 0 and the “Plant response rating, Crabgrass, Brazil” value ([1]; 125 g ai/ha) is reported as 0. The “Plant response rating, Crabgrass, Brazil” value ([1]; 250 g ai/ha) was 0, the “Plant response rating, Crabgrass, Brazil” value ([1]; 500 g ai/ha) was 10 and the “Plant response rating, Pigweed, Palmer” value ([2]; 31 g ai/ha) was 75. For the same compound, the “Plant response rating, Pigweed, Palmer” value ([2]; 62 g ai/ha) was 80, the “Plant response rating, Pigweed, Palmer” value ([2]; 125 g ai/ha) was 98 and the “Plant response rating, Pigweed, Palmer” value ([2]; 250 g ai/ha) was 100. The “Plant response rating, Pigweed, Palmer” value ([2]; 500 g ai/ha) was 100, the “Plant response rating, Field Bindweed” value ([3]; 31 g ai/ha) was 0 and the “Plant response rating, Field Bindweed” value ([3]; 62 g ai/ha) was 0. For the same compound, the “Plant response rating, Field Bindweed” value ([3]; 125 g ai/ha) was 0, the “Plant response rating, Field Bindweed” value ([3]; 250 g ai/ha) was 0 and the “Plant response rating, Field Bindweed” value ([3]; 500 g ai/ha) was 15. The “Plant response rating, Dayflower, VA” value ([4]; 31 g ai/ha) was 0, the “Plant response rating, Dayflower, VA” value ([4]; 62 g ai/ha) was 0 and the “Plant response rating, Dayflower, VA” value ([4]; 125 g ai/ha) was 0. For the same compound, the “Plant response rating, Dayflower, VA” value ([4]; 250 g ai/ha) was 0, the “Plant response rating, Dayflower, VA” value ([4]; 500 g ai/ha) was 0 and the “Plant response rating, Waterhemp” value ([5]; 62 g ai/ha) was 85. For the same compound, the “Plant response rating, Waterhemp” value ([5]; 125 g ai/ha) was 95, the “Plant response rating, Waterhemp” value ([5]; 250 g ai/ha) was 98 and the “Plant response rating, Waterhemp” value ([5]; 500 g ai/ha) was 100. The “Plant response rating, Arrowleaf Sida” value ([6]; 31 g ai/ha, scale 0 to 100) was 50, the “Plant response rating, Arrowleaf Sida” value ([6]; 62 g ai/ha, scale 0 to 100) was 60 and the “Plant response rating, Arrowleaf Sida” value ([6]; 125 g ai/ha, scale 0 to 100) was 70. The “Plant response rating, Arrowleaf Sida” value ([6]; 250 g ai/ha, scale 0 to 100) was 80, the “Plant response rating, Arrowleaf Sida” value ([6]; 500 g ai/ha, scale 0 to 100 (0 no effect, 100 complete control)) was 90 and the “Plant response rating, Beggarticks” value ([7]; 31 g ai/ha) was 85. For the same compound, the “Plant response rating, Beggarticks” value ([7]; 62 g ai/ha) was 98, the “Plant response rating, Beggarticks” value ([7]; 125 g ai/ha) was 98 and the “Plant response rating, Beggarticks” value ([7]; 250 g ai/ha) was 98. For the same compound, the “Plant response rating, Beggarticks” value ([7]; 500 g ai/ha) was 100, the “Plant response rating, Ryegrass, Italian” value ([8]; 31 g ai/ha) was 0 and the “Plant response rating, Ryegrass, Italian” value ([8]; 62 g ai/ha) was 0. For the same compound, the “Plant response rating, Ryegrass, Italian” value ([8]; 125 g ai/ha) was 0, the “Plant response rating, Ryegrass, Italian” value ([8]; 250 g ai/ha) was 0 and the “Plant response rating, Ryegrass, Italian” value ([8]; 500 g ai/ha) was 0. The “Plant response rating, Poinsettia, Wild” value ([10]; 31 g ai/ha) was 0, the “Plant response rating, Poinsettia, Wild” value ([10]; 62 g ai/ha) was 0 and the “Plant response rating, Poinsettia, Wild” value ([10]; 125 g ai/ha) was 0. For the same compound, the “Plant response rating, Poinsettia, Wild” value ([10]; 250 g ai/ha) was 0, the “Plant response rating, Poinsettia, Wild” value ([10]; 500 g ai/ha) was 0 and the “Plant response rating, Corn” value (corn (Zea mays); 31 g ai/ha) was 0. For the same compound, the “Plant response rating, Corn” value (corn (Zea mays); 62 g ai/ha) was 0, the “Plant response rating, Corn” value (corn (Zea mays); 125 g ai/ha) was 0 and the “Plant response rating, Corn” value (corn (Zea mays); 250 g ai/ha) was 0. The “Plant response rating, Corn” value (corn (Zea mays); 500 g ai/ha) was 0.
